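Dose response: 5 concentrations. Exposure: 48 h. Format: 96-well plates. Endpoint: linear interpolation; highest concentration if not reached. Here, GI50 denotes the concentration required for 50% inhibition of growth.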 Activity calls are given as the source filed them. Rule as the data show it: active = GI50 up to about 1.1 µM and inactive = higher.
Columns and labels:
Experiment in all cases: NCI-60 cell line screen, 48 h
Hs-578T = tested on: Hs-578T
DMS-114 = tested on: DMS-114
XF498 = tested on: XF498
RXF 631 = tested on: RXF 631
LXFL 529 = tested on: LXFL 529
SNB-78 = tested on: SNB-78
DLD-1 = tested on: DLD-1
DMS-273 = tested on: DMS-273
HOP-18 = tested on: HOP-18

Measured: GI50

CC(=O)OC1CCC2(C)C(=CCC3C2CCC2(C)C3CC3OC4(CCC(C)CN4)C(C)C32)C1 (centres undefined)
inactive: Hs-578T > 100 µM

CC(C)(C)c1cc(C2COC(=O)COCCOCC(=O)OCCOCCO2)cc(C(C)(C)C)c1O (centres undefined)
inactive: Hs-578T 27.7 µM

CC(=O)OC1=CC2(OC(C)=O)CC(C)(C)C1C1C(=O)C=CC(=O)C12 (centres undefined)
inactive: DMS-114 > 100 µM | XF498 > 100 µM | RXF 631 > 100 µM | LXFL 529 > 100 µM | SNB-78 > 100 µM | DLD-1 > 100 µM | DMS-273 > 100 µM

CCCCCN(CCCCC)C(=O)[C@@H](CCC(=O)OCc1ccccc1)NC(=O)c1cc2ccccc2[nH]1
inactive: DMS-114 > 100 µM | RXF 631 > 100 µM | LXFL 529 8.85 µM | SNB-78 > 100 µM | DLD-1 > 100 µM | HOP-18 > 100 µM | DMS-273 > 100 µM

CCOC(=O)CC1=N/C(=N/C(=N)N[N+](=O)[O-])SC1
inactive: LXFL 529 > 100 µM | SNB-78 > 100 µM | DLD-1 > 100 µM | HOP-18 > 100 µM | DMS-273 > 100 µM

CC1SC2=NC3=C(c4ccccc4C3=O)C(c3ccc(Br)cc3)N2C1=O (centres undefined)
inactive: DMS-114 31.2 µM | XF498 43.8 µM | LXFL 529 53 µM | DLD-1 76 µM | DMS-273 > 100 µM

CC1(Br)CC2OC3(Br)C=CC(C)(O)C2(CC1=O)C3(C)C (centres undefined)
inactive: DMS-114 > 100 µM | XF498 > 90.4 µM | LXFL 529 98.9 µM | SNB-78 > 100 µM | DLD-1 98.2 µM | HOP-18 > 100 µM | DMS-273 > 100 µM

Cc1nc2ccccc2c(=O)n1/N=C(\N=N\c1cc(Cl)ccc1Cl)c1ccccc1
inactive: Hs-578T 74 µM | DMS-114 30.2 µM | XF498 61.2 µM | RXF 631 > 10 µM | LXFL 529 36.5 µM | DLD-1 45.6 µM | HOP-18 14.3 µM | DMS-273 43.3 µM

O=C1C2C(C(=O)N1O)N(Cc1ccccc1)C(=O)N2Cc1ccccc1 (centres undefined)
inactive: DMS-114 > 100 µM | XF498 > 100 µM | LXFL 529 > 100 µM | SNB-78 > 100 µM | DLD-1 > 100 µM

O=C1O[C@@H](c2ccccc2)C[C@H]1CN1CCOCC1
inactive: DMS-114 67 µM | XF498 81.8 µM | RXF 631 > 100 µM | LXFL 529 > 100 µM | SNB-78 > 100 µM | DLD-1 > 100 µM

CCC(/C=C/c1ccccc1)=N\Nc1ccc(Cl)c(Cl)c1
inactive: Hs-578T 55.3 µM

OC12CCCCCC1(N1CCOCC1)c1ccccc12 (centres undefined)
inactive: DMS-114 > 100 µM | LXFL 529 > 100 µM | SNB-78 > 100 µM | HOP-18 > 100 µM | DMS-273 > 100 µM

O=C(Cc1ccccc1)NN1C(=O)C(Cl)C1c1cc(Br)cc(Br)c1O (centres undefined)
inactive: DMS-114 3.97 µM | XF498 19.8 µM | LXFL 529 13.5 µM | SNB-78 24.4 µM | DLD-1 8.81 µM | HOP-18 7.83 µM | DMS-273 12.5 µM

C#CC1(O)c2ccccc2C(=O)c2ccccc21
inactive: XF498 84.7 µM | LXFL 529 > 100 µM | SNB-78 35.9 µM | HOP-18 > 100 µM | DMS-273 > 100 µM

CC(C)C(=O)Nc1nc2c(ncn2C2OC(CO)C(O)C2O)c(=O)[nH]1 (centres undefined)
inactive: DMS-114 67.1 µM | XF498 > 100 µM | RXF 631 > 100 µM | LXFL 529 > 100 µM | SNB-78 > 100 µM | DLD-1 > 100 µM | HOP-18 > 100 µM | DMS-273 > 100 µM

C/C(CC(=O)Nc1cccc(Cl)c1C)=N\NC(=O)c1ccncc1
inactive: DMS-114 > 100 µM | XF498 > 100 µM | LXFL 529 > 100 µM | SNB-78 > 100 µM | DLD-1 > 100 µM | DMS-273 > 100 µM

O=C1CN(c2cccc(C(F)(F)F)c2)C(=O)CN1CCN1CC(=O)N(c2cccc(C(F)(F)F)c2)CC1=O
inactive: Hs-578T > 100 µM

C/C(=C\C(=O)Nc1ccc2[nH]nnc2c1)Nc1ccc2[nH]nnc2c1
inactive: DMS-114 > 100 µM | RXF 631 > 100 µM | LXFL 529 > 100 µM | SNB-78 > 100 µM | DLD-1 > 100 µM | HOP-18 > 100 µM

NC(=O)N1N=C2c3ccccc3OC[C@H]2[C@@H]1c1ccccc1
inactive: DMS-114 7.53 µM | XF498 10.7 µM | LXFL 529 31 µM | SNB-78 > 38.5 µM | DLD-1 6.5 µM | HOP-18 18.7 µM | DMS-273 9.1 µM

OC1/C(=C/c2ccccc2)CNC/C1=C\c1ccccc1 (centres undefined)
inactive: DMS-114 > 100 µM | LXFL 529 > 100 µM | SNB-78 > 100 µM | DLD-1 > 100 µM | HOP-18 > 100 µM | DMS-273 > 100 µM

CSc1nc(-c2ccccc2)c2c(n1)-c1ccccc1CC2
inactive: DMS-114 > 100 µM | XF498 > 100 µM | RXF 631 > 100 µM | LXFL 529 > 100 µM | DLD-1 > 100 µM | HOP-18 > 100 µM

O=[N+]([O-])c1ccc(-n2nnc(C3=NCCCN3)c2-c2ccc(Cl)cc2)cc1
inactive: XF498 > 100 µM | LXFL 529 > 100 µM | SNB-78 > 100 µM | DLD-1 > 100 µM | HOP-18 > 100 µM | DMS-273 > 100 µM

N#Cc1c(Cl)c2cccnc2n2c1nc1ccccc12
inactive: Hs-578T 2.79 µM

CN(C)c1ccc2nc3c(ccc4ccccc43)[o+]c2c1
inactive: DMS-114 19.3 µM | XF498 14.4 µM | RXF 631 7.91 µM | LXFL 529 6.53 µM | SNB-78 14.6 µM | DLD-1 5.51 µM | HOP-18 10.1 µM | DMS-273 17.9 µM

O=[N+]([O-])c1nccn1CC(O)c1ccc(F)cc1 (centres undefined)
inactive: DMS-114 > 100 µM | XF498 > 100 µM | RXF 631 > 100 µM | LXFL 529 > 100 µM | HOP-18 > 100 µM | DMS-273 > 100 µM

O=C(Sc1sc(=S)sc1SC(=O)c1ccccc1)c1ccccc1
inactive: DMS-114 > 100 µM | XF498 55.2 µM | LXFL 529 > 100 µM | SNB-78 > 100 µM | HOP-18 > 100 µM | DMS-273 53 µM

C#CCC(N)(CO)C(=O)O (centres undefined)
inactive: DMS-114 > 100 µM | XF498 > 100 µM | LXFL 529 > 100 µM | SNB-78 > 100 µM | DLD-1 > 100 µM | HOP-18 > 100 µM | DMS-273 > 100 µM

O=C(c1ccccc1)N1C(=S)NC(=N/c2ccccc2)/C1=N\c1ccccc1
inactive: Hs-578T > 100 µM

COCC(OC)C(CC=C(C#N)C#N)OC (centres undefined)
inactive: DMS-114 > 100 µM | XF498 > 100 µM | LXFL 529 > 100 µM | SNB-78 > 100 µM | DMS-273 > 100 µM

CC(C)(O)[C@@H]1CCC(C)([C@H]2[C@@H](O)CC3(C)C4CC(OC5OC(CO)C(O)C(O)C5O)C5C(C)(C)[C@@H](OC6OCC(O)C(O)C6O)CC[C@@]56C[C@@]46CC[C@]23C)O1 (some centres undefined)
inactive: DMS-114 > 100 µM | XF498 > 100 µM | LXFL 529 > 100 µM | SNB-78 > 100 µM | DLD-1 > 100 µM | HOP-18 > 100 µM | DMS-273 > 100 µM

Cn1c(=O)nc2n(-c3cccc(Br)c3)c3ccccc3nc-2c1=O
inactive: DMS-114 2.04 µM | XF498 5.36 µM | LXFL 529 6.1 µM | SNB-78 12.2 µM | DLD-1 5.41 µM | HOP-18 5.9 µM | DMS-273 3.1 µM

O=NN(CCCl)C(=O)NCCCl [CARMUSTINE]
inactive: Hs-578T 103 µM | DMS-114 61.5 µM | XF498 68.1 µM | RXF 631 80.2 µM | LXFL 529 71.4 µM | SNB-78 88.9 µM | DLD-1 76.6 µM | HOP-18 91.4 µM | DMS-273 74 µM

CNc1nc(OC)c2c(n1)n(C)c[n+]2C [HETEROMINE B]
inactive: Hs-578T 31.6 µM
